Data taken from PMC6270338, “Diterpenylquinone Hybrids: Synthesis and Assessment of Gastroprotective Mechanisms of Action in Human Cells” (Molecules, 2013).
Values belong to the compound of their own block, whether it stands above or below them.

Legend:
AGS cells [1] = experiment: Sodium taurocholate (NaT)-induced damage to AGS cells; format: cell-based, human; details: 60 min pre-treatment, then 10 mM NaT 30 min
Method: The effect of sodium taurocholate (NaT) on cell viability was determined according to [15]. […] Then, 10 mM NaT was added to all wells for 30 min. Untreated cells were used as controls. […] After incubation, the NRU assay was carried out.

[2] = tested on: human erythrocyte membranes; experiment: Inhibition of lipoperoxidation in erythrocyte membranes; format: biochemical; details: at 100 µg/mL
Method: The inhibition of lipid peroxidation was determined using human erythrocyte membranes. The compounds were tested at 100 µg/mL.

AGS cells [3] = experiment: Cellular reduced glutathione (GSH) content of AGS cells; format: cell-based, human; details: 4 h; for GSH: post-confluent AGS, control 13.6 ± 0.7
Method: Untreated cells were used as controls. […] After incubation, the GSH content was determined using a colorimetric kit (BioAssays Systems, Hayward, CA, USA). Results are expressed as nanomol of soluble reduced sulfhydryls/10^6 cells.

[4] = Cytotoxicity, neutral red uptake assay, AGS; format: cell-based; details: human, AGS gastric epithelial cells, confluent monolayer, read-out: IC50 ± SD, cytotoxicity AGS
Method: (§1) Human lung fibroblasts MRC-5 (ATCC CCL-171) were grown in minimum essential Eagle medium (MEM) with Earles’s salts and 2 mM L-glutamine (Sigma-Aldrich Co.). Human epithelial gastric cells AGS (ATCC CRL-1739) were grown in Ham F-12 medium containing 1 mM L-glutamine. Both media were supplemented with 1.5 g/L sodium bicarbonate (Sigma-Aldrich Co.), 10% heat-inactivated fetal bovine serum (FBS), 100 IU/mL penicillin and 100 µg/mL streptomycin.Both cell lines were grown as monolayers in a humidified incubator with 5% CO2 in air at 37 °C. Culture media, antibiotics and FBS were obtained from Invitrogen Corp.
(§2) Cytotoxicity values were required as a reference to determine the working concentrations in the subsequent experiments. Briefly, confluent cultures of MRC-5 and AGS cells were treated during 24 h with medium containing the compounds at concentrations ranging from 0 up to 1,000 µM. The products were first dissolved in DMSO (1% final concentration) and then in the corresponding culture medium supplemented with 2% FBS. Untreated cells were used as controls. Cell viability was determined at the end of the incubation by means of the neutral red uptake (NRU) assay. Lansoprazole (Sigma-Aldrich Co., min. 98% by TLC) was used as reference compound.

[5] = Cytotoxicity, neutral red uptake assay, MRC-5; format: cell-based; details: human, MRC-5 lung fibroblasts, confluent monolayer, confluent MRC-5, 24 h, read-out: IC50 ± SD, cytotoxicity MRC-5
Method: as §1, §2

AGS cells [6] = experiment: Prostaglandin E2 (PGE2) content of AGS cells; format: cell-based, human; details: 1 h; for PGE2: post-confluent AGS, control 52 ± 5
Method: One day after confluence, AGS cells were treated for 1 h with the compounds at 1/2 and 1/4 of the respective IC50 values. A control with medium only was included. Indomethacin (100 μM) was used as standard inhibitor of prostaglandin synthesis (Sigma-Aldrich Co., min. 99% by TLC). After incubation, PGE2 content was determined by means of a specific enzyme immunoassay kit (R & D Systems KGE004B, Minneapolis, MN, USA) and values were calculated according to the manufacturer instructions. Results are expressed as pg/well.

[7] = tested on: human erythrocyte membranes; experiment: Inhibition of lipoperoxidation in erythrocyte membranes; format: biochemical

Compound: Sucralfate [reference compound]
reduction in cell viability, NaT-induced damage (AGS cells [1]; 4 mg/mL (580 µM)): 35%

Compound: C=C1CCC2[C@](C)(CCC[C@]2(C)C(=O)O)[C@H]1CC[C@@H](C)CC(=O)O (stereo partly shown) [Compound 4, Junicedric acid]
% Inhibition of the lipoperoxidation [2]: 25%
GSH (AGS cells [3]; 48 µM): * 18.4 ± 1.1 nmol/10^6 cells
GSH (AGS cells [3]; 96 µM): * 17.2 ± 1.0 nmol/10^6 cells
IC50 at 24 h [4]: 383 ± 23 µM
IC50 at 24 h [5]: 439 ± 26 µM

Compound: COc1ccc2c(c1)c(CC(=O)O)c(C)n2C(=O)c1ccc(Cl)cc1 [Indomethacin, reference compound]
PGE2 (AGS cells [6]; 100 µM): Not detected

Compound: C=C1CCC2[C@](C)(CCC[C@]2(C)C(=O)O)[C@H]1CC[C@@H](C)CC(=O)OC1=C(CC=C(C)C)C(=O)c2ccccc2C1=O (stereo partly shown) [Compound 7, Lapachoyl junicedrate]
% Inhibition of the lipoperoxidation [2]: 10%
activation at 18 µM (AGS cells [3]; Homo sapiens, AGS, 18 µM, read-out: increase of GSH content compared to untreated controls): 18%
activation at 36 µM (AGS cells [3]; Homo sapiens, AGS, 36 µM, read-out: increase of GSH content compared to untreated controls): 23%
GSH (AGS cells [3]; 18 µM): 16.1 ± 0.9 nmol/10^6 cells
GSH (AGS cells [3]; 36 µM): * 16.7 ± 0.7 nmol/10^6 cells
IC50 at 24 h [4]: 143 ± 6 µM
IC50 at 24 h [5]: 221 ± 13 µM

IC50, inhibition of the lipoperoxidation [7]: IC50 33.3 ± 2.3 µg/mL
Compound: CC(C)CCC1=C(O)C(=O)C2=C(CCCC2)C1=O [Compound 3, Dihydroprenyl-5,6,7,8-tetrahydrolapachol]
GSH (AGS cells [3]; 11 µM): 14.3 ± 0.7 nmol/10^6 cells
GSH (AGS cells [3]; 22 µM): 13.0 ± 0.5 nmol/10^6 cells
IC50 at 24 h [4]: 87 ± 4 µM
IC50 at 24 h [5]: 307 ± 22 µM

Compound: Cc1c(OCC(F)(F)F)ccnc1C[S+]([O-])c1nc2ccccc2[nH]1 (stereo not shown) [Lansoprazole, reference compound]
IC50 at 24 h [4]: 168 ± 8 µM
IC50 at 24 h [5]: 316 ± 11 µM

Compound: CC(CCC1C(C)CCC2C(C)(C(=O)O)CCCC12C)CC(=O)O (stereo not drawn) [Compound 6, 17β-Dihydrojunicedric acid]
% Inhibition of the lipoperoxidation [2]: 30%
activation at 37 µM (AGS cells [3]; Homo sapiens, AGS, 37 µM, read-out: increase of GSH content compared to untreated controls): 43%
activation at 71 µM (AGS cells [3]; Homo sapiens, AGS, 71 µM, read-out: increase of GSH content compared to untreated controls): 60%
GSH (AGS cells [3]; 37 µM): * 19.5 ± 0.9 nmol/10^6 cells
GSH (AGS cells [3]; 71 µM): ** 21.7 ± 1.3 nmol/10^6 cells
IC50 at 24 h [4]: 283 ± 17 µM
IC50 at 24 h [5]: 163 ± 5 µM

Compound: CC(C)=CCC1=C(O)C(=O)c2ccccc2C1=O [Compound 1, Lapachol]
fold induction at 143 µM (AGS cells [6]; Homo sapiens, AGS, 143 µM, read-out: increase in PGE2 content): 2.3
fold induction at 286 µM (AGS cells [6]; Homo sapiens, AGS, 286 µM, read-out: increase in PGE2 content): 2.5
PGE2 (AGS cells [6]; 143 µM): 117 ± 10 pg/mL
PGE2 (AGS cells [6]; 286 µM): 132 ± 12 pg/mL
% Inhibition of the lipoperoxidation [2]: 38%
GSH (AGS cells [3]; 72 µM): 13.9 ± 0.9 nmol/10^6 cells
GSH (AGS cells [3]; 143 µM): 14.1 ± 0.8 nmol/10^6 cells
IC50 at 24 h [4]: 571 ± 28 µM
IC50 at 24 h [5]: > 1000 µM

IC50, inhibition of the lipoperoxidation [7]: IC50 25.3 ± 4.1 µg/mL
Compound: CC(C)CCC1=C(OC(=O)C[C@H](C)CC[C@H]2[C@@H](C)CCC3[C@]2(C)CCC[C@]3(C)C(=O)O)C(=O)c2ccccc2C1=O (stereo partly drawn) [Compound 15, Dihydroprenyl lapachol 17β-dihydrojunicedrate]
fold induction at 250 µM (AGS cells [6]; Homo sapiens, AGS, 250 µM, read-out: increase in PGE2 content): 5.4
fold induction at 500 µM (AGS cells [6]; Homo sapiens, AGS, 500 µM, read-out: increase in PGE2 content): 7.2
PGE2 (AGS cells [6]; 250 µM): 279 ± 20 pg/mL
PGE2 (AGS cells [6]; 500 µM): 372 ± 25 pg/mL
reduction in cell viability, NaT-induced damage (AGS cells [1]; 125 µM): 27%
reduction in cell viability, NaT-induced damage (AGS cells [1]; 250 µM): 27%
reduction in cell viability, NaT-induced damage (AGS cells [1]; 500 µM): 21%
activation at 125 µM (AGS cells [3]; Homo sapiens, AGS, 125 µM, read-out: increase of GSH content compared to untreated controls): 31%
activation at 250 µM (AGS cells [3]; Homo sapiens, AGS, 250 µM, read-out: increase of GSH content compared to untreated controls): 35%
GSH (AGS cells [3]; 125 µM): * 17.8 ± 0.9 nmol/10^6 cells
GSH (AGS cells [3]; 250 µM): * 18.4 ± 1.2 nmol/10^6 cells
IC50 at 24 h [4]: > 1000 µM
IC50 at 24 h [5]: > 1000 µM

Compound: CC(C)=CCC1=C(OC(=O)C[C@H](C)CC[C@H]2[C@@H](C)CCC3[C@]2(C)CCC[C@]3(C)C(=O)O)C(=O)C2=C(CCCC2)C1=O (stereo partly drawn) [Compound 17, Dihydroprenyl-5,6,7,8-tetrahydrolapachoyl 17β-dihydrojunicedrate]
% Inhibition of the lipoperoxidation [2]: 48%
activation at 7.5 µM (AGS cells [3]; Homo sapiens, AGS, 7.5 µM, read-out: increase of GSH content compared to untreated controls): 89%
activation at 15 µM (AGS cells [3]; Homo sapiens, AGS, 15 µM, read-out: increase of GSH content compared to untreated controls): 51%
GSH (AGS cells [3]; 7.5 µM): ** 25.8 ± 1.6 nmol/10^6 cells
GSH (AGS cells [3]; 15 µM): ** 20.5 ± 1.0 nmol/10^6 cells
IC50 at 24 h [4]: 60 ± 5 µM
IC50 at 24 h [5]: 44 ± 4 µM

Compound: CC(C)CCC1=C(O)C(=O)c2ccccc2C1=O [Compound 2, Dihydroprenyl lapachol]
reduction in cell viability, NaT-induced damage (AGS cells [1]; 37 µM): 23%
reduction in cell viability, NaT-induced damage (AGS cells [1]; 73 µM): 23%
reduction in cell viability, NaT-induced damage (AGS cells [1]; 146 µM): 27%
GSH (AGS cells [3]; 37 µM): 13.6 ± 0.7 nmol/10^6 cells
GSH (AGS cells [3]; 73 µM): 13.8 ± 0.7 nmol/10^6 cells
IC50, inhibition of the lipoperoxidation [7]: IC50 25.4 ± 2.4 µg/mL
IC50 at 24 h [4]: 292 ± 12 µM
IC50 at 24 h [5]: 611 ± 42 µM

Compound: C=C1CCC2[C@](C)(CCC[C@]2(C)C(=O)OC)[C@H]1CC[C@@H](C)CC(=O)OC1=C(CCC(C)C)C(=O)C2=C(CCCC2)C1=O (stereo partly shown) [Compound 12, Dihydroprenyl-5,6,7,8-tetrahydrolapachoyl junicedrate methyl ester]
% Inhibition of the lipoperoxidation [2]: 37%
GSH (AGS cells [3]; 125 µM): 13.7 ± 1.0 nmol/10^6 cells
GSH (AGS cells [3]; 250 µM): 13.9 ± 0.8 nmol/10^6 cells
IC50 at 24 h [4]: > 1000 µM
IC50 at 24 h [5]: 667 ± 40 µM

IC50, inhibition of the lipoperoxidation [7]: IC50 75.4 ± 6.0 µg/mL
Compound: O.Oc1cc(O)c2c(c1)O[C@H](c1ccc(O)c(O)c1)[C@@H](O)C2 [Catechin, reference compound]

Compound: CC(=O)N[C@@H](CS)C(=O)O [NAC, N-acetyl-L-cysteine, reference compound]
activation at 750 µM (AGS cells [3]; Homo sapiens, AGS, 750 µM, read-out: increase of GSH content compared to untreated controls): 30%
GSH (AGS cells [3]; 750 µM): * 17.7 ± 1.4 nmol/10^6 cells

IC50, inhibition of the lipoperoxidation [7]: IC50 19.7 ± 1.4 µg/mL
Compound: COC(=O)[C@@]1(C)CCC[C@@]2(C)C1CC[C@H](C)[C@@H]2CC[C@@H](C)CC(=O)OC1=C(CC=C(C)C)C(=O)c2ccccc2C1=O (stereo partly drawn) [Compound 14, Lapachoyl 17β-dihydrojunicedrate methyl ester]
GSH (AGS cells [3]; 115 µM): 14.4 ± 0.5 nmol/10^6 cells
GSH (AGS cells [3]; 229 µM): 12.7 ± 0.4 nmol/10^6 cells
IC50 at 24 h [4]: 916 ± 54 µM
IC50 at 24 h [5]: 727 ± 48 µM
